# Reference: patent publication US10266806B2, “Stem cell-derived hepatocytes in co-culture and uses thereof” (Colorado State University Research Foundation, priority 2014, dated 2019)
# Structures can show the parent of a compound that is named as a salt. Where two headings read alike, the source gives them in different places.
# Legend:
# [1] = test system: primary human hepatocytes in MPCCs; settings: (ref 19), cited from earlier work; for TC50 in MPCCs ATP: concentration at which activity decreases by 50% of DMSO-only controls
# [2] = test system: iHeps in iMPCCs
# [3] = total human plasma concentration; cited from earlier work
# [4] = negative number: withdrawn from the market; higher positive numbers: greater DILI concern; cited from earlier work
# [5] = test system: iHeps in iCCs
# [6] = test system: iMPCCs
# [7] = test system: iHeps in iMPCCs; test: Drug toxicity screening in iMPCCs (albumin, ATP, urea; binary decision and TC50)
# [8] = test system: primary hepatocytes (HUM4011)
smiles,measurement,setting,value
O=C(O)Cc1ccccc1Nc1c(Cl)cccc1Cl [Diclofenac],TC50 in MPCCs Albumin,[1],141.9 µM
same,TC50 in MPCCs Urea,[1],206.2 µM
same,TC50 in MPCCs ATP,[1],638.4 µM
CN(C)CCCN1c2ccccc2CCc2ccc(Cl)cc21 [Clomipramine],TC50 in MPCCs Albumin,"[2]; human, 6 days",9.4 µM
same,TC50 in MPCCs Urea,"[2]; human, 6 days",13.8 µM
same,TC50 in MPCCs Albumin,[1],9.4 µM
same,TC50 in MPCCs Urea,[1],9.9 µM
same,TC50 in MPCCs ATP,[1],12.0 µM
O=C1CC2(CCCC2)CC(=O)N1CCCCN1CCN(c2ncccn2)CC1 [Buspirone],Cmax,[3],0.005 µM
same,DILI Sev (DILI severity scores from the LTKB of the FDA),[4],3
CC(=O)Oc1ccccc1C(=O)O [Aspirin],Model predictions iCC (binary decision),[5],−
same,albumin production in iMPCCs,[6],minimally affected
same,urea production in iMPCCs,[6],minimally affected
same,Cmax,[3],5.53 µM
same,Model predictions iMPCC (binary decision),[2],−
O=P1(N(CCCl)CCCl)NCCCO1 (stereo not drawn) [Cyclophosphamide],TC50 in MPCCs Albumin,[7],18670.7 µM
same,Cmax,[3],265 µM
same,TC50 in MPCCs Albumin,[1],1449.4 µM
same,TC50 in MPCCs Urea,[1],1746.0 µM
same,TC50 in MPCCs ATP,[1],6165.0 µM
CCCCC1C(=O)N(c2ccccc2)N(c2ccccc2)C1=O [Phenylbutazone],Cmax,[3],487 µM
same,TC50 in MPCCs Albumin,[1],6414.4 µM
same,TC50 in MPCCs Urea,[1],2532.0 µM
same,TC50 in MPCCs ATP,[1],7566.7 µM
Cc1ccc(C(=O)c2cc(O)c(O)c([N+](=O)[O-])c2)cc1 [tolcapone],albumin production in iMPCCs,[6],declined significantly
same,urea production in iMPCCs,[6],declined significantly
same,"albumin secretions in iMPCCs, toxicity over time and dose",[2],time- and dose-dependent toxicities
CCN(CC)CCOc1ccc(C(=C(Cl)c2ccccc2)c2ccccc2)cc1 [Clomiphene citrate],Cmax,[3],0.022 µM
same,Model predictions iMPCC (binary decision),[2],−
CC(C)NCC(O)COc1cccc2ccccc12 (stereo not drawn) [Propranolol],Cmax,[3],0.201 µM
same,Model predictions iMPCC (binary decision),[2],−
NC(=O)c1cnccn1 [Pyrazinamide],Model predictions iCC (binary decision),[5],−
same,toxicity call in iCCs,[5],non-toxic
same,Cmax,[3],407 µM
same,toxicity call in iMPCCs / iHeps,[2],toxic
same,TC50 in MPCCs Albumin,"[2]; human, 6 days",33457.5 µM
same,DILI Sev (DILI severity scores from the LTKB of the FDA),[4],3
same,TC50 in MPCCs Albumin,[1],20420.3 µM
same,TC50 in MPCCs Urea,[1],14781.6 µM
same,TC50 in MPCCs ATP,[1],19695.5 µM
C[C@@H]1C[C@H]2[C@@H]3CCC4=CC(=O)C=C[C@]4(C)[C@@]3(F)[C@@H](O)C[C@]2(C)[C@@]1(O)C(=O)CO [Dexamethasone],Model predictions iCC (binary decision),[5],−
same,Cmax,[3],0.224 µM
same,Model predictions iMPCC (binary decision),[2],−
same,DILI Sev (DILI severity scores from the LTKB of the FDA),[4],3
C[C@]12C=CC(=O)C=C1CC[C@@H]1[C@@H]2C(=O)C[C@@]2(C)[C@H]1CC[C@]2(O)C(=O)CO [Prednisone],Cmax,[3],0.068 µM
same,Model predictions iMPCC (binary decision),[2],−
C=C[C@H]1C[N@@]2CC[C@H]1C[C@H]2[C@H](O)c1ccnc2ccc(OC)cc12 [Quinine],Cmax,[3],9.25 µM
same,TC50 in MPCCs ATP,"[2]; human, 6 days",182.2 µM
same,TC50 in MPCCs Albumin,"[2]; human, 6 days",115.7 µM
same,TC50 in MPCCs Urea,"[2]; human, 6 days",127.9 µM
same,TC50 in MPCCs Albumin,[1],251.6 µM
same,TC50 in MPCCs Urea,[1],285.2 µM
same,TC50 in MPCCs ATP,[1],259.1 µM
CC(=O)[C@H]1CC[C@H]2[C@@H]3CCC4=CC(=O)CC[C@]4(C)[C@H]3CC[C@]12C [Progesterone],Cmax,[3],0.193 µM
O=C(O)c1cn(C2CC2)c2cc(N3CCNCC3)c(F)cc2c1=O [Ciprofloxacin HCl],TC50 in MPCCs ATP,"[2]; human, 6 days",804.2 µM
same,TC50 in MPCCs Albumin,"[2]; human, 6 days",525.3 µM
same,TC50 in MPCCs Urea,"[2]; human, 6 days",326.3 µM
C[C@H](CS)C(=O)N1CCC[C@H]1C(=O)O [Captopril],Cmax,[3],4.28 µM
CC(=O)Nc1nnc(S(N)(=O)=O)s1 [Acetazolamide],toxicity call in another donor of primary hepatocytes,[8],false negative
same,Cmax,[3],135 µM
same,Model predictions iMPCC (binary decision),[2],−
CC(=O)Nc1ccc(O)cc1 [Acetaminophen],albumin production in iMPCCs,[6],declined significantly
same,urea production in iMPCCs,[6],declined significantly
CN(CCOc1ccc(CC2SC(=O)NC2=O)cc1)c1ccccn1 (stereo not drawn) [Rosiglitazone],Cmax,[3],1.12 µM
CC(C(=O)O)c1ccc(-c2ccccc2)c(F)c1 (stereo not drawn) [Flurbiprofen],TC50 in MPCCs Albumin,[7],5683.4 µM
same,Cmax,[3],57.4 µM
same,"comparison of urea TC50 values, iHeps versus primary hepatocytes","[2]; human, 6 days",higher TC50 in iHeps
same,DILI Sev (DILI severity scores from the LTKB of the FDA),[4],3
same,TC50 in MPCCs Albumin,[1],2406.8 µM
same,TC50 in MPCCs Urea,[1],2459.0 µM
same,TC50 in MPCCs ATP,[1],3351.1 µM
CN(C)CCCN1c2ccccc2CCc2ccccc21 [Imipramine HCl],DILI Sev (DILI severity scores from the LTKB of the FDA),[4],3
Cc1c(C)c2c(c(C)c1O)CCC(C)(COc1ccc(CC3SC(=O)NC3=O)cc1)O2 (stereo not drawn) [Troglitazone],albumin production in iMPCCs,[6],declined significantly
same,urea production in iMPCCs,[6],declined significantly
same,DILI Sev (DILI severity scores from the LTKB of the FDA),[4],−2
